Measured values taken from patent US20070243254A1, “NOVEL DRUG COMPOSITIONS AND DOSAGE FORMS OF TOPIRAMATE” (priority 2002, published 2007).
≈ marks a conversion by molar mass, not a printed value. Read-outs that look alike come from different tables or passages of the source.

How the values were obtained:
[1] = cited from earlier work
[2] = equilibrium solubility of topiramate in de-ionized water and aqueous surfactant solutions; assay type: physicochemical; settings: for solubility: de-ionized water
Method: As defined herein, the solubility of a pharmaceutical agent is determined by adding the pharmaceutical agent to stirred or agitated de-ionized water maintained in a constant temperature bath at a temperature of 37° C. until no more pharmaceutical agent dissolves. The resulting solution saturated with the pharmaceutical agent is then filtered, typically under pressure through a 0.8-micron Millipore filter, and the concentration of the pharmaceutical agent in the solution is measured by any appropriate analytical method including gravimetric, ultraviolet spectrophometry, chromatography, and the like. The solubility of the pharmaceutical agent is measured at equilibrium.
A drug composition of the present invention was prepared as follows. Aqueous solutions of five surfactants were prepared. The selected surfactants were four grades of ethylene oxide/propylene oxide/ethylene oxide (LUTROL grades F127, F87, F108, and F68) and PEG-40 stearate (MYRJ 52). Solutions were made at concentrations of 1, 5, and 15 weight percent. The aqueous surfactant blends solutions were chilled as necessary to promote complete dissolution of the surfactant prior to drug solubility studies.
The aqueous surfactant solutions were equilibrated to constant temperature in a 37° C. water bath. Then, neat topiramate drug was added slowly with stirring in approximately 10 mg increments to the surfactant solutions until no more drug dissolved. A control sample of drug dissolved in de-ionized water without surfactant was included for comparison purposes. The resulting saturated solutions of drug were filtered through 0.8 micron filters and analyzed for drug concentration by refractive index chromatography. The resulting solubility values were plotted as a function of both surfactant concentration and the hydrophilic-lipophilic balance value of each surfactant. FIG. 6 was constructed from the solubility values obtained and HLB data for each surfactant utilized.

[3] = cited from earlier work; remark: listed apart in the source

solubility in water in presence of surfactant ([2]; LUTROL F127, F87, F108, F68, MYRJ 52 at 1, 5, 15 weight percent, 37° C.): increased by each surfactant
solubility ([2]; water, thermodynamic from solid, without surfactant, 37° C., read-out: solubility in de-ionized water): ~12 mg/mL (≈ 35.4 mM)
solubility ([2]; read-out: solubility of neat topiramate (range)): 9.8 to 13 mg/mL (≈ 28.9 to 38.3 mM)
SMILES: CC1(C)O[C@@H]2[C@@H](CO[C@@]3(COS(N)(=O)=O)OC(C)(C)O[C@@H]23)O1 [topiramate, 2,3:4,5-bis-O-(1-methylethylidene)-β-D-fructopyranose sulfamate]
solubility in organic solvents ([1]; acetone, dimethylsulfoxide, ethanol): soluble in acetone, dimethylsulfoxide and ethanol
solubility in alkaline solutions ([1]; alkaline solutions containing sodium hydroxide or sodium phosphate): soluble in alkaline solutions
solubility of topiramate in water ([1]; room temperature): about 9.8 mg/ml
dose proportionality of pharmacokinetics ([3]; in vivo): linear
effect of food on pharmacokinetics ([3]; in vivo): not significantly affected by food
excretion ([3]; in vivo): excreted largely through the urine
mean elimination half life ([3]; in vivo): about 21 hours
metabolism ([3]; in vivo): not extensively metabolized
time to peak plasma drug concentrations ([3]; oral, immediate release dosage form): approximately 2 hours
